Converted amounts (≈) assume the structure as drawn. Blank lines part the entries; values can stand above or below the compound they belong to.
Columns and labels:
[1] = Solubilization of poorly soluble drugs in PMeOx-PcBOx polymeric micelles; settings: polymer 10 mg/ml
Excerpt: (§1) (P2). The molecules examined belonged to different classes including transforming growth factor β (TGF-β) receptor inhibitors (LY2109761, GW788388 and LY364947), protein synthesis inhibitors (bruceantin), toll-like receptor (TLR) 7 agonist (imiquimod), phosphatidylinositol 3-kinase (PI3K) inhibitors (wortmannin and pictilisib (GDC-0941)), microtubule inhibitor (paclitaxel), and topoisomerase inhibitors (Aclacinomycin A and SN-38). […] Drugs were screened at various ratios, beginning at 1:10 (drug:polymer), and increased the ratio until maximal solubility was obtained.

[2] = DLS size distribution of API-loaded micelles, Example 8; assay type: physicochemical; settings: PcBOx triblock (PMeOx-PcBOx-PMeOx) micelles
Procedure: (§2) Drug-encapsulated polymeric nanoparticle formulations were prepared by the thin film hydration method. For resiquimod, imiquimod, and RXDX-105, stock solutions of PMeOx-PcBOx-PMeOx and drugs in chloroform:methanol (9:1) solution were mixed together at the pre-determined ratios (8:10 drug to polymer w/w ratio (resiquimod), 2:10 w/w ratio (imiquimod), 4:10 w/w ratio (RXDX-105)). The organic solvent was evaporated at 58° C. under a stream of inert gas to form a thin-film of drug-polymer homogenous mixture. Next, the thin films were hydrated with saline and then incubated for 5-10 min to form drug-encapsulated polymeric micelle solutions. All samples were prepared with 1 mg of polymer and hydrated with 100 uL of saline. The formed micelle solutions were centrifuged at 10,000 rpm for 3 minutes (Sorvall Legend Micro 21R Centrifuge, Thermo Scientific) to remove any precipitate of unloaded drug or polymer. The final concentration of drugs in PMeOx-PcBOx-PMeOx micelles was analyzed by HPLC (Agilent Technologies 1200 series) using a mixture of acetonitrile/water (70%/30% v/v for Resiquimod and imiquimod; 50%/50% v/v for RXDX-105) as the mobile phase. The samples were diluted with mobile phase to final concentration of ˜100 μg/mL of drugs and injected (10 μL) into the HPLC system. The flow rate was 1.0 mL/min, and column temperature was 40° C. Detection wavelength was 254 nm. Drug concentration was quantified against free drug calibration curves. Particle z-average effective diameter and polydispersity index (PDI) were measured by dynamic light scattering (DLS) (Nano-ZS, Malvern Instruments, UK).

[3] = Loading capacity of API-loaded micelles (thin film hydration, HPLC), Example 8; assay type: physicochemical; settings: PcBOx triblock (PMeOx-PcBOx-PMeOx) micelles, polymer 10 mg/ml
Procedure: as §2, with “The samples were diluted with mobile phase to final concentration of ˜100 μg/mL of drugs and injected (10 μL) into the HPLC system. The flow rate was 1.0 mL/min, and column temperature was 40° C. Detection wavelength was 254 nm.” left out, “UK). […]” for “UK).”

[4] = Solubilization of poorly soluble drugs in P2 reference polymer micelles
Excerpt: as §1

[5] = DLS size distribution of drug-loaded PMeOx-PcBOx micelle formulations; assay type: physicochemical; settings: drug-loaded PMeOx-PcBOx micelle formulation
[6] = Release profile of encapsulated drugs from polymeric micelles; assay type: physicochemical; settings: from P2, after 24 hours, 10:1 polymer:drug feeding ratio
Procedure: The release profile of encapsulated drugs (Paclitaxel and Bruceantin) in PMeOx-PcBOx was investigated. Both Paclitaxel and Bruceantin were continuously released from PMeOx-PcBOx nanoparticle, with over 80% of drugs being released at 24 hour time point (FIG. 5C). The release rates were similar for Bruceantin in both of the polymers. […] After 24 hours, most of the PTX was released in PcBOx whereas not even 50% was released from P2. This kind of release data is consistent with previously published data at this low (10:1) polymer:drug feeding ratio. Both paclitaxel and Bruceantin formulation in PMeOx-PcBOx were proven stable for 8 days at 4° C. as the drug loading and size distribution were monitored (FIGS. 5E and 5F).

Deff [2]: 112 nm
PDI [2]: 0.30
LC (%) [3]: 24.1%
Structure (SMILES): COc1cc2ncnc(Oc3cccc(NC(=O)Nc4cc(C(C)(C)C(F)(F)F)on4)c3)c2cc1OC [RXDX-105]

LC (maximum loading capacity) ([4]; P2 micelles, polymer 10 mg/ml): 41%
LE (loading efficiency) ([4]; P2 micelles, polymer 10 mg/ml): 86%
solubility ([4]; aqueous with cosolvent or surfactant or cyclodextrin): 6890 µg/mL (≈ 8.07 mM)
drug released [6]: < 50%
LC (maximum loading capacity) [1]: 6.3%
Dv10 [5]: 23.3 nm
Dv50 [5]: 34.6 nm
Dv90 [5]: 80.9 nm
PDI [5]: 0.298
size in DLS measurement [5]: 85 nm
Structure (SMILES): CC(=O)O[C@H]1C(=O)[C@@]2(C)[C@H]([C@H](OC(=O)c3ccccc3)[C@]3(O)C[C@H](OC(=O)[C@H](O)[C@@H](NC(=O)c4ccccc4)c4ccccc4)C(C)=C1C3(C)C)[C@]1(OC(C)=O)CO[C@@H]1C[C@@H]2O [paclitaxel]

LC (maximum loading capacity) [1]: 0.2%
Structure (SMILES): O=C(NC1CCOCC1)c1ccc(-c2cc(-c3c[nH]nc3-c3ccccn3)ccn2)cc1 [GW788388]

solubilization (in words) [4]: practically insoluble
LC (maximum loading capacity) [1]: 4.3%
Structure (SMILES): CS(=O)(=O)N1CCN(Cc2cc3nc(-c4cccc5[nH]ncc45)nc(N4CCOCC4)c3s2)CC1 [GDC-0941, pictilisib]

More lines, now with the values behind:

Structure (SMILES): CCc1c2c(nc3ccc(O)cc13)-c1cc3c(c(=O)n1C2)COC(=O)[C@]3(O)CC [SN-38]
LC (maximum loading capacity) [1]: undetectable

Structure (SMILES): CC[C@@]1(O)C[C@H](O[C@H]2C[C@H](N(C)C)[C@H](O[C@H]3C[C@H](O)[C@H](O[C@H]4CCC(=O)[C@H](C)O4)[C@H](C)O3)[C@H](C)O2)c2c(cc3c(c2O)C(=O)c2c(O)cccc2C3=O)[C@H]1C(=O)OC [aclacinomycin A, Aclacinomycin A]
LC (maximum loading capacity) [1]: 6.8%

Structure (SMILES): c1ccc(-c2nn3c(c2-c2ccnc4cc(OCCN5CCOCC5)ccc24)CCC3)nc1 [LY2109761]
LC (maximum loading capacity) ([4]; P2 micelles, polymer 10 mg/ml): 14.0%
LE (loading efficiency) ([4]; P2 micelles, polymer 10 mg/ml): 78%
maximal solubilized drug concentration ([4]; P2 micelles, polymer 10 mg/ml): 1.5 mg/mL
LC (maximum loading capacity) [1]: 24.7%
LE (loading efficiency) [1]: 82%
maximal solubilized drug concentration [1]: ~3.28 mg/mL
Dv10 [5]: 15.5 nm
Dv50 [5]: 21.5 nm
Dv90 [5]: 34.8 nm
PDI [5]: 0.4
size in DLS measurement [5]: 50 nm

Structure (SMILES): CC(C)Cn1cnc2c(N)nc3ccccc3c21 [Imiquimod, imiquimod]
Deff [2]: 160 nm
PDI [2]: 0.18
solubilization (in words) [4]: practically insoluble
LC (%) [3]: 14.1%
LC (maximum loading capacity) [1]: undetectable

Structure (SMILES): c1ccc(-c2[nH]ncc2-c2ccnc3ccccc23)nc1 [LY364947]
LC (maximum loading capacity) [1]: 0.3%
